We go through three molecules from patent US11072633B2 (priority 2016, dated 2021).

Values after ≈ are worked out from the molar mass of the structure shown. Values joined by “and” are separate entries in the source; they are usually repeats but may differ in a detail not shown here. Equal values may be shown once. Read-outs that look alike come from different tables or passages of the source.

The test system of experiment [1] is RIF-R1 (derived from H37Rv, rpoB mutant S522L). The format is cell-based, M. tuberculosis.
For experiment [2], the system named is FQ-R1 (fluoroquinolone-resistant strain derived from H37Rv, gyrA mutant D94N). It is filed as cell-based, M. tuberculosis.
Experiment [3] concerns INH-R1 (derived from H37Rv, katG mutant Y155*). It is filed as cell-based, M. tuberculosis.
The next experiment concerns M. tuberculosis H37Rv. The format is cell-based.

As to `NNC(=O)c1ccncc1` [INH, isoniazid], the “MIC RIF-R1” value in experiment [1] was found to be 0.20 µM (≈ 0.0274 µg/mL). Further, in experiment [2], the “MIC FQ-R1” value was determined as 0.29 µM (≈ 0.0398 µg/mL). Moreover, the “MIC INH-R1” value in experiment [3] was over 200 µM.

`COc1nc2ccc(Br)cc2cc1[C@@H](c1ccccc1)[C@@](O)(CCN(C)C)c1cccc2ccccc12` [BDQ, bedaquiline, reference compound]: the Frequencies of resistance in the experiment with M. tuberculosis H37Rv was 5.5 × 10^−9 and 3.4 × 10^−7.

Take `CCCN1CC2C(CC[C@@]3(C)C2CC[C@@H]3C(=O)Nc2cc(C(C)(C)C)ccc2C(C)(C)C)[C@@]2(C)CCC(=O)C=C12` (some centres unmarked) [Compound 114]: the Frequencies of resistance in the experiment with M. tuberculosis H37Rv (114 5 × MIC with BDQ 5 × MIC) is reported as 2 × 10^−7; with M. tuberculosis H37Rv (114 5 × MIC, BDQ none), 3.6 × 10^−6; in the experiment with M. tuberculosis H37Rv (114 10 × MIC with BDQ 10 × MIC), 7.8 × 10^−8; in the experiment on M. tuberculosis H37Rv (114 10 × MIC, BDQ none), 1.1 × 10^−7.
